Laboratory results as given in patent US20220125791A1, “NOVEL DEVICES” (INTRA-CELLULAR THERAPIES, INC., priority 2019, published 2022).
Where two headings read alike, the source gives them in different places.

Experiment: Compound 1 in plasma and ocular tissue following topical administration
Assay type: in vivo, male hypertensive New Zealand White Rabbit
Conditions: for AUC(0-t): male, New Zealand White, rabbit, topical or ocular, topical administration, 5% (2-Hydroxypropyl)-β-cyclodextrin in PBS pH 7.4, LC-MS/MS
Procedure: The goal of this study was to determine the presence/absence of Compound 1 in male hypertensive New Zealand White Rabbit plasma and ocular tissue following a topical administration. For the study, Compound 1 was formulated with 5% (2-Hydroxypropyl)-β-cyclodextrin in phosphate-buffered saline pH 7.4 at 60 μg/eye. Plasma, Cornea, Conjunctiva, Aqueous Humor (AH), and Iris Ciliary Body (ICB) samples were collected for analysis of the concentrations of Compound 1 using LC-MS/MS methods.

AUC(0-t) (60 μg/eye, aqueous humor, read-out: AUC0-24hr in the aqueous humor): 866 ng·h/mL | AUC(0-t) (60 μg/eye, plasma, read-out: AUC0-24hr in the plasma): 46.3 ng·h/mL | availability in ocular tissue (ocular tissue upon topical administration, 60 μg/eye (FIG. 1)): rapid availability | presence in plasma (plasma, 1 hour after topical administration, 60 μg/eye): present
SMILES: CN1C(=O)c2c(nn(Cc3ccc(-c4ccccn4)cc3)c2Nc2ccccc2)N2C1=N[C@@H]1CCC[C@@H]12 [Compound 1]
